Reference: ChEMBL document CHEMBL5131482, “Synthesis and SAR of novel GPR39 agonists and positive allosteric modulators” (Bioorg Med Chem Lett, 2022)
Activity calls are given as the source filed them. No cut-off for these calls is given here.

Tests used:
[1] = target: T1, G-protein coupled receptor 39 (Homo sapiens) (UniProt O43194); assay: Agonist activity at human GPR39 receptor expressed in CHO cells assessed as increase in ca2+ flux relative to Zn2+; assay type: functional, cell-based
T1 sequence (whole entry): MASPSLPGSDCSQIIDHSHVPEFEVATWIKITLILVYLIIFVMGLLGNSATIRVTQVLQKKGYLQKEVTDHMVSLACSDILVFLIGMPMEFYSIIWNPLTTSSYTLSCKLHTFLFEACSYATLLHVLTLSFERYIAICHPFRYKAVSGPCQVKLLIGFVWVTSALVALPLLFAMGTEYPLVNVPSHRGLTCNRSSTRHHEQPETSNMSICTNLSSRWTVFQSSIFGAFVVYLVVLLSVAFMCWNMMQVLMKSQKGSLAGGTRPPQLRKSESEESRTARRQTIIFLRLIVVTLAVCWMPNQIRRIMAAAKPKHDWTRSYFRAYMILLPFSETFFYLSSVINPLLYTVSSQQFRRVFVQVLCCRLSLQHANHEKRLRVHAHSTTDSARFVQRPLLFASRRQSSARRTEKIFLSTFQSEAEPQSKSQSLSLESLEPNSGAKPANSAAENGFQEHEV

[2] = target: T2, G-protein coupled receptor 39 (Homo sapiens, UniProt O43194); assay: Agonist activity at human GPR39 receptor expressed in CHO cells assessed as increase in ca2+ flux; assay type: functional, cell-based
T2 sequence (O43194 whole entry): T1 sequence (whole entry)

[3] = target: T2, G-protein coupled receptor 39; assay: Positive allosteric activity at human GPR39 receptor expressed in CHO cells assessed as increase in zn2+ induced ca2+ flux; assay type: cell-based
SH-SY5Y [4] = assay: Neuroprotective activity against 6-OHDA-induced PD model of human SH-SY5Y cells assessed as increase in cell viability; assay type: functional, cell-based
[5] = target: T1, G-protein coupled receptor 39 (Homo sapiens); assay: Positive allosteric activity at human GPR39 receptor expressed in CHO cells assessed as increase in zn2+ induced ca2+ flux relative to Zn2+; assay type: cell-based; settings: filed as positive allosteric modulator
SH-SY5Y [6] = assay: Cytotoxicity in human SH-SY5Y cells assessed as decrease in cell viability at 10 uM; assay type: toxicity, cell-based
[7] = filed as positive allosteric modulator

Emax [1, 7]	EC50 [2]	EC50 [3]	SMILES	other results
49%	16 nM	> 27100 nM	CNc1nc(NC2CCCCC2)cc(-c2ccccn2)n1	–
51%	–	–	Cc1cc(NC(C)c2ccc(F)cc2)n2ncc(-c3ccccn3)c2n1 (single isomer, unassigned; enantiomer 1) [listing 1 of 2 here]	–
84%	15 nM	> 27100 nM	CNc1nc(NCc2ccc(NS(C)(=O)=O)cc2Cl)cc(-c2ccccn2)n1	Activity (SH-SY5Y [4]): Active; Activity (SH-SY5Y [6]): Toxic
86%	3 nM	> 27100 nM	CNc1nc(NCc2ccccc2Cl)cc(-c2ccccn2)n1	–
–	> 10000 nM	142 nM	Cc1cc(N2CCC(c3ccccc3)C2)n2ncc(-c3ccccn3)c2n1 (single isomer, unassigned; enantiomer 1) [listing 2 of 2 here]	–
–	–	273 nM	Cc1cc(N2CCC(c3ccccc3)C2)n2ncc(-c3ccccn3)c2n1 (single isomer, unassigned; enantiomer 2) [listing 2 of 2 here]	EC50 ([2]; cho): > 10000 nM
58%	481 nM	23 nM	CNc1nc(Oc2ccccc2)cc(-c2ccccn2)n1	Emax [5]: 48%
–	> 31600 nM	487 nM	CNc1cc(-c2ccccn2)nc(NC2CCCCC2)n1	Emax [5]: 88%
–	26 nM	–	Cc1cc(NC(C)c2ccc(F)cc2)n2ncc(-c3ccccn3)c2n1 (single isomer, unassigned; enantiomer 2) [listing 2 of 2 here]	EC50 ([3]; cho): > 27100 nM; Activity (SH-SY5Y [6]): Toxic
–	> 31600 nM	> 27100 nM	Cc1cc(N2C(=O)CCC2c2ccccc2)n2ncc(-c3ccccn3)c2n1 (racemic)	–
–	17 nM	> 27100 nM	Cc1cc(NC(C)c2ccc(F)cc2)n2ncc(-c3ccccn3)c2n1 (single isomer, unassigned; enantiomer 1) [listing 2 of 2 here]	–
–	17 nM	> 27100 nM	Cc1cc(N2CCCC2c2ccccc2)n2ncc(-c3ccccn3)c2n1 (racemic)	Emax [1]: 36%
57%	15 nM	> 27100 nM	Cc1cc(NCc2ccc(F)cc2)n2ncc(-c3ccccn3)c2n1	–

The next lines start with the compound.

SMILES	Emax [1, 7]	EC50 [2]	EC50 [3]	other results
N#Cc1ccc(N2CCN(Cc3cn4cc(Cl)ccc4n3)CC2)nc1	48%	6250 nM	–	–
Cc1cc(NC(C)c2ccc(F)cc2)n2ncc(-c3ccccn3)c2n1 (single isomer, unassigned; enantiomer 2) [listing 1 of 2 here]	68%	–	–	Activity (SH-SY5Y [4]): Active
Cc1cc(N2CCC(c3ccccc3)C2)n2ncc(-c3ccccn3)c2n1 (single isomer, unassigned; enantiomer 1) [listing 1 of 2 here]	–	–	–	Emax [5]: 65%
CNC(=O)C(Nc1cc(C)nc2c(-c3ccccn3)cnn12)c1ccc(F)cc1 (racemic)	75%	78 nM	> 27100 nM	–
Cn1cc(-c2ccc3nc(C(N)CCOCc4ccccc4)[nH]c(=O)c3c2)cn1 (stereo not drawn)	–	> 50000 nM	641 nM	Emax [5]: 83%
NC(Cc1cnc[nH]1)c1nc2ccc(-c3ccccc3)cc2c(=O)[nH]1 (stereo not drawn)	–	> 50000 nM	251 nM	Emax [5]: 102%
O=C(Cc1nn(CC2CCC2)c(=O)c2ccccc12)NCc1ccccn1	–	> 50000 nM	4040 nM	Emax [5]: 49%
Cc1cc(N2CCC(c3ccccc3)C2)n2ncc(-c3ccccn3)c2n1 (single isomer, unassigned; enantiomer 2) [listing 1 of 2 here]	–	–	–	Emax [5]: 54%
Cc1cc(N2CCCC2c2cccnc2)n2ncc(-c3ccccn3)c2n1 (single isomer, unassigned; enantiomer 2) [listing 1 of 2 here]	–	240 nM	–	EC50 ([3]; cho): > 27100 nM
Cc1cc(N2CCCC2c2cccnc2)n2ncc(-c3ccccn3)c2n1 (single isomer, unassigned; enantiomer 2) [listing 2 of 2 here]	64%	–	–	–
Cc1cc(N2CCCC2c2cccnc2)n2ncc(-c3ccccn3)c2n1 (single isomer, unassigned; enantiomer 1) [listing 1 of 2 here]	58%	–	–	–
Cc1cc(N2CCCC2c2cccnc2)n2ncc(-c3ccccn3)c2n1 (single isomer, unassigned; enantiomer 1) [listing 2 of 2 here]	–	79 nM	> 27100 nM	–
Cc1cc(NC(C)(C)c2ccc(F)cc2)n2ncc(-c3ccccn3)c2n1	–	63 nM	> 27100 nM	Emax [1]: 38%
